From PubChem BioAssay AID1963849 (Molecular Pharmacology Branch, DTP, NCI, 2024)

System: 299254-011-R-J1-PDC complex spheroid viability
Assay: Anticancer human tumor 299254-011-R-J1-PDC patient-derived melanoma cell line growth inhibition [POLQ]
Conditions: for IC50: curve of first compound; for viability, T/C: stronger effect = lower value
Procedure: Multicellular complex tumor spheroid response to Polymerase (POL) inhibitors (novobiocin, ART-558, RP6685) in combination with a variety of drugs and investigational agents in selected tumor cell lines
The POL inhibitors (novobiocin, ART-558, and RP6685) were evaluated both individually and in combination with standard of care and investigational anticancer small molecules within a complex spheroid model of solid tumors. . Complex spheroids include a stromal component modeled by human endothelial cells (HUVEC) and fibroblasts modeled by human mesenchymal stem cells (MSCs). The concentration ranges selected for each drug and investigational agent were based upon clinically achievable concentrations if the clinical Cmax of the agent was known.
Compounds. The drugs and investigational agents: novobiocin (NSC847541), ART-558 (NSC835418), RP-6685 (NSC848927), peposertib (NSC802822), ceralasertib (NSC780249), elimusertib (NSC800525), camonsertib (NSC841442), AZD-1390 (NSC803789), olaparib (NSC753686), talazoparib (NSC767125), rucaparib (NSC756644), sotorasib (NSC818433), MRTX-1133 (NSC836407), SN-38 (NSC673596), topotecan (NSC609699), epotoside (NSC141540), doxorubicin (NSC123127), gemcitabine (NSC613327), 5-fluorouracil (NSC19893), paclitaxel (NSC125973), vemurafenib (NSC761431), MSA-2 (NSC828583), SN-011 (NSC837082), adavosertib (NSC754352), prexasertib (NSC758257), carboplatin (NSC241240) and oxaliplatin (NSC266046), were obtained from the National Cancer Institute (NCI) Developmental Therapeutics Program Chemical Repository (21). The FDA-approved anticancer drug set is available from the Developmental Therapeutics Program at https://dtp.cancer.gov/organization/dscb/obtaining/. […] The stock solutions were prepared in dimethyl sulfoxide (DMSO, Sigma-Aldrich, St. Louis, MO, cat. D2650), except for the platinum compounds which were prepared in saline (Quality Biological, Gaithersburg, MD, cat. 114-055-101), at 800-fold the tested concentration and stored at -70 degrees C prior to their use. All drugs and investigational agents were tested over a range starting from a high concentration at or near the clinical Cmax and decreasing in half-log increments. If the clinical Cmax for an agent had not been determined, the highest concentration tested was 10 microM, except for SN-38, which was tested at a high concentration of 1 microM.
Cell Culture. All cells were maintained in an incubator at 37 degrees C and 5% CO2 with 95% humidity. The PDC lines were cultured according to standard operating procedures established by the NCI PDMR (https://pdmr.cancer.gov). Table 3 of the manuscript, lists the cell lines along with the number of the three cell types plated to form the mct-spheroids and media for tumor cell growth. After thawing, all PDC lines, except 997537-175-T-J1-PDC and 415267-285-R-J2-PDC, were cultured in Matrigel-coated flasks prepared with a working solution of 1X Ham's F-12 nutrient mix, without supplementation (Thermo Fisher Scientific, cat. 11765054), 100 U/mL penicillin-streptomycin (Thermo Fisher Scientific, cat. 15140122), and 2.5% Matrigel (Corning Inc., Corning, NY, cat. 354248) for the first three passages. The two PDC lines 997537-175-T-J1-PDC and 415267-285-R-J2-PDC were cultured on uncoated flasks. The 857933-349-R-J2-PDC line was cultured in 6C/Colon 1B media containing advanced DMEM/F-12 (Thermo Fisher Scientific, cat. 12634028), 10 mM HEPES (Thermo Fisher Scientific, cat. 15630080), 1X GlutaMAX supplement (Thermo Fisher Scientific, cat. 35050061), 0.1 mg/mL primocin (InvivoGen, San Diego, CA, cat. ant-pm-2), 10% defined fetal bovine serum, heat inactivated (HyClone Laboratories Inc., Logan, UT, cat. SH30070.03HI), 50% L-WRN conditioned media (ATCC, cat. CRL-3276), 1.25 mM N-Acetyl-L-cysteine (Sigma-Aldrich, cat. A9165), 10 mM nicotinamide (Sigma-Aldrich, cat. N0636), 1X B-27 supplement (Thermo Fisher Scientific, cat. 17504044), 1X N-2 supplement (Thermo Fisher Scientific, cat. […]

[1] = second compound 0.0316 µM, first compound 0.00316 µM
[2] = second compound 0.0316 µM, first compound 0.01 µM
[3] = second compound 0.0316 µM, first compound 0.0316 µM
[4] = second compound 0.0316 µM, first compound 0.1 µM
[5] = second compound 0.1 µM, first compound 0.00316 µM
[6] = second compound 0.1 µM, first compound 0.01 µM
[7] = second compound 0.1 µM, first compound 0.0316 µM
[8] = second compound 0.1 µM, first compound 0.1 µM
[9] = second compound 0.316 µM, first compound 0.00316 µM
[10] = second compound 0.316 µM, first compound 0.01 µM
[11] = second compound 0.316 µM, first compound 0.0316 µM
[12] = second compound 0.316 µM, first compound 0.1 µM
[13] = second compound 1 µM, first compound 0.00316 µM
[14] = second compound 1 µM, first compound 0.01 µM
[15] = second compound 1 µM, first compound 0.0316 µM
[16] = second compound 1 µM, first compound 0.1 µM
[17] = second compound 3.16 µM, first compound 0.00316 µM
[18] = second compound 3.16 µM, first compound 0.01 µM
[19] = second compound 3.16 µM, first compound 0.0316 µM
[20] = second compound 3.16 µM, first compound 0.1 µM
[21] = second compound 10 µM, first compound 0.00316 µM
[22] = second compound 10 µM, first compound 0.01 µM
[23] = second compound 10 µM, first compound 0.0316 µM
[24] = second compound 10 µM, first compound 0.1 µM
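Further: spheroids exposed to drugs for one week before measurement.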
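Wherever viability, T/C is given: percent viability relative to DMSO vehicle control taken as 100%.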

CC[C@@]1(O)C(=O)OCc2c1cc1n(c2=O)Cc2cc3c(CN(C)C)c(O)ccc3nc2-1 + COC1C(OC(N)=O)C(O)C(Oc2ccc3c(O)c(NC(=O)c4ccc(O)c(CC=C(C)C)c4)c(=O)oc3c2C)OC1(C)C
IC50 (second compound 0.0316 µM): > 100 nM | IC50 (second compound 0.1 µM): > 100 nM | IC50 (second compound 0.316 µM): > 100 nM | IC50 (second compound 1 µM): > 100 nM | IC50 (second compound 3.16 µM): > 100 nM | IC50 (second compound 10 µM): > 100 nM | viability, T/C (second compound 0.0316 µM, first compound 0.000316 µM): 104% | viability, T/C (second compound 0.0316 µM, first compound 0.001 µM): 95.4% | viability, T/C [1]: 123% | viability, T/C [2]: 101% | viability, T/C [3]: 112% | viability, T/C [4]: 76% | viability, T/C (second compound 0.1 µM, first compound 0.000316 µM): 111% | viability, T/C (second compound 0.1 µM, first compound 0.001 µM): 105% | viability, T/C [5]: 107% | viability, T/C [6]: 110% | viability, T/C [7]: 114% | viability, T/C [8]: 83.5% | viability, T/C (second compound 0.316 µM, first compound 0.000316 µM): 102% | viability, T/C (second compound 0.316 µM, first compound 0.001 µM): 120% | viability, T/C [9]: 103% | viability, T/C [10]: 102% | viability, T/C [11]: 120% | viability, T/C [12]: 74.5% | viability, T/C (second compound 1 µM, first compound 0.000316 µM): 104% | viability, T/C (second compound 1 µM, first compound 0.001 µM): 106% | viability, T/C [13]: 111% | viability, T/C [14]: 110% | viability, T/C [15]: 110% | viability, T/C [16]: 67.6% | viability, T/C (second compound 3.16 µM, first compound 0.000316 µM): 115% | viability, T/C (second compound 3.16 µM, first compound 0.001 µM): 104% | viability, T/C [17]: 93.6% | viability, T/C [18]: 105% | viability, T/C [19]: 105% | viability, T/C [20]: 84.6% | viability, T/C (second compound 10 µM, first compound 0.000316 µM): 112% | viability, T/C (second compound 10 µM, first compound 0.001 µM): 111% | viability, T/C [21]: 112% | viability, T/C [22]: 102% | viability, T/C [23]: 110% | viability, T/C [24]: 87.1%

COc1cccc(OCCCN)c1-c1cc(Nc2cnc(C#N)cn2)n[nH]1 + COC1C(OC(N)=O)C(O)C(Oc2ccc3c(O)c(NC(=O)c4ccc(O)c(CC=C(C)C)c4)c(=O)oc3c2C)OC1(C)C
IC50 (second compound 0.0316 µM): 65.1 nM | IC50 (second compound 0.1 µM): 119 nM | IC50 (second compound 0.316 µM): 111 nM | IC50 (second compound 1 µM): 206 nM | IC50 (second compound 3.16 µM): 84.5 nM | IC50 (second compound 10 µM): 126 nM | viability, T/C [1]: 99.5% | viability, T/C [2]: 94.9% | viability, T/C [3]: 58.7% | viability, T/C [4]: 49.6% | viability, T/C (second compound 0.0316 µM, first compound 0.316 µM): 41.6% | viability, T/C (second compound 0.0316 µM, first compound 1 µM): 38.1% | viability, T/C [5]: 94.2% | viability, T/C [6]: 98.6% | viability, T/C [7]: 72% | viability, T/C [8]: 53.9% | viability, T/C (second compound 0.1 µM, first compound 0.316 µM): 41.1% | viability, T/C (second compound 0.1 µM, first compound 1 µM): 38% | viability, T/C [9]: 105% | viability, T/C [10]: 102% | viability, T/C [11]: 74.5% | viability, T/C [12]: 52.4% | viability, T/C (second compound 0.316 µM, first compound 0.316 µM): 42.1% | viability, T/C (second compound 0.316 µM, first compound 1 µM): 39.6% | viability, T/C [13]: 114% | viability, T/C [14]: 89.2% | viability, T/C [15]: 74.2% | viability, T/C [16]: 56.8% | viability, T/C (second compound 1 µM, first compound 0.316 µM): 43.8% | viability, T/C (second compound 1 µM, first compound 1 µM): 39.9% | viability, T/C [17]: 99.5% | viability, T/C [18]: 105% | viability, T/C [19]: 65.7% | viability, T/C [20]: 55.1% | viability, T/C (second compound 3.16 µM, first compound 0.316 µM): 38.3% | viability, T/C (second compound 3.16 µM, first compound 1 µM): 48.6% | viability, T/C [21]: 105% | viability, T/C [22]: 104% | viability, T/C [23]: 67.7% | viability, T/C [24]: 56.9% | viability, T/C (second compound 10 µM, first compound 0.316 µM): 49% | viability, T/C (second compound 10 µM, first compound 1 µM): 40%
